Assay results as given in patent US20250223559A1, “AXIOLOID: A STEM CELL-BASED MODEL OF HUMAN AXIAL DEVELOPMENT” (KYOTO UNIVERSITY, priority 2022, published 2025).

What was measured:
[1] = system: human Axioloids; assay: scRNA-seq analysis of Axioloids (clusters, marker genes, differentially expressed genes); assay type: cell-based
Procedure: Axioloids were collected into wells of a 96-well plate and washed three times by transferring to another well filled with 0.1% BSA (SIGMA) in HBSS(-). Axioloids of the desired stage and number were then transferred to another well filled with 100 μl of enzyme P solution of the Neural Tissue Dissociation Kit (P) (Miltenyi Biotec) and incubated at 37° C. for 10 minutes. After adding 100 μl of 0.1% BSA in HBSS(-) Axioloids were dissociated by pipetting with an uncut P200 tip 20 times. The dissociated cells were filtered through Flowmi Cell Strainers with […] porosity (Merck) into a BSA-coated 2 ml tube (Eppendorf). Cells were washed twice in 1% BSA in HBSS(-) with centrifugation steps at 400×g for 6 minutes at room temperature. Cells were then resuspended in 1% BSA in HBSS(-) using a BSA-coated uncut-P200 tip and the concentration of the cell suspension was determined with hemocytometer. The cell suspension was subjected to library preparation using Chromium Next GEM Single Cell 3' Kit v3.1 (10× Genomics), aiming for a target cell recovery of 5000-10000. Library preparation was preformed following the instructions provided by the manufacturer 10X Genomics (CG000315 Rev B). The libraries were sequenced with NovaSeq 6000 Sequencing System (Illumina) using NovaSeq 6000 SP Reagent Kit v1.5 (100 Cycles) (Illumina, #20028401) and NovaSeq 6000 S1 Reagent Kit v1.5 (100 Cycles) (Illumina, #20028319) with the paired-end mode as described in the instructions by 10X Genomics (CG000315 Rev B). scRNA-seq data were first mapped to the human reference genome (hg38) to make matrices of UMI count for each gene and each cell using Cell Ranger (10X Genomics, version 6.0.1). Putative doublet clusters were removed using Scrublet (version 0.2.3) with the expected_doublet_rate set as 0.06^64. Then, the count data were imported into the Suerat package (version 4.0.3)^65 for the downstream analysis. […] The cell cycle scores and cell cycle phases were then determined as described before^66. […]

[2] = system: segmentation clock gene HES7; assay: HES7:Luciferase reporter oscillation of the segmentation clock in Axioloids; assay type: cell-based, human; conditions: RA, RAL or ROL, with or without MG
Procedure: Bioluminescence live-cell imaging of HES7-reporter (201B7Luc) iPSC-derived human Axioloids (201B7Luc) was performed and signal was quantified as previously described^55,56 Briefly, one day before imaging glass-bottom 96-well plates (Iwaki) were coated with 50 μl of 1.5% PVA (Nacalai), the PVA solution was hereby aspirated and the plates dried on top of a clean bench overnight at room temperature. Prior to imaging, Axioloids were set onto coated glass-bottom 96-well plates with 80 μl of AK02N-C medium containing […] D-Luciferin and 10% Matrigel. Small molecule agonists and antagonists of signaling pathways were added according to the experimental setup. Bioluminescence signals of Axioloids induced from the HES7-reporter cell line were recorded on IX83 (Olympus) equipped with iXon EMCCD camera (Andor) cultured in a stage top incubator (Tokai Hit). Signal was acquired with 2×2 binning and 1 min exposure. Cosmic rays were removed from the raw images by applying spike noise filter, then smoothed by median filter. Temporal fluctuation of signal baseline was corrected by background subtraction. Kymograph was generated by averaging luminescence intensity values along the lateral axis of Axioloids and resulted values were aligned in temporal order.
Periodicity of HES7 oscillation was quantified from time-series luminescence intensity data obtained from either live imaging or Kronos HT (Atto) measurements using HES7 reporter-derived Axioloids. For Kronos HT based oscillation measurements, Axioloids were transferred at 72 h (48 h after aggregation) into 24-well film-bottom plates (Eppendorf) covered in 400 μl of embedding medium (+/−MG) supplemented with D-Luciferin (100 μM) (bioWORLD). Axioloid containing culture plates were cultured at 37° C. and 5% CO2. Oscillations were measured for 48 hours and each well was measured for 10 seconds with 8 min intervals. Intensity values were processed using Matlab. Temporal trend was obtained by subtracting moving average (window size of 10 h), and the detrended signal was smoothed by Savitzky-Golay filter (window size of 3 h). Instantaneous oscillation phase was calculated by applying Hilbert transform, then peak detection was performed on cosine values of instantaneous oscillation phase. Peak-to-peak period was then quantified on each n-th oscillation.

CC1=C(/C=C/C(C)=C/C=C/C(C)=C/C=O)C(C)(C)CCC1 [RAL, all trans-Retinal]
segregation of SM and TB clusters ([1]; MG with vs without RA or RAL, 96 h and 120 h): clear segregation of the SM and TB clusters
expression of TCF15, MEOX1, PAX3, PBX1, ZIC3, NR2F1, MEIS2 ([1]; MG-embedded, exposed to RAL/RA): up-regulated
MG-associated DEGs in SM (EMT genes, SFRP1, DKK1, FST, ID2, TFC15, PAX3) ([1]; addition of RA or RAL to MG): attenuated
oscillatory activity including periodicity of HES7 [2]: largely no effect
